Measured values published in patent US9040259B2, “Production of polyketides and other natural products” (Buck Institute for Research on Aging, priority 2002, dated 2015).
Like-named read-outs stand apart in the source and are kept apart here.

Experiments:
HT29 (colon) = test: MTT growth inhibition assay, HT29 (colon) tumour cell line; assay type: cell-based, human; settings: for IC50: concentration giving 50% of maximum inhibition, read-out: IC50 (row head: HT29 rIC50)
Description: (§1) Growth inhibition of adherent human tumour cell lines of solid malignancies HT29 (colon) and MCF-7 (breast) was tested in vitro using an MTT (3-(4,5-dimethylthiazol-2-yl)-2,5-diphenyltetrazolium bromide) assay using micro-titre plates (Sieuwerts, A. M., et al., 1995). All cell lines were obtained from either the ATCC (American Type Culture Collection) or ECACC (European Collection of Cell Cultures). All cell lines were grown from frozen stocks and passaged at least once prior to use in RPMI 1640. Cells were harvested from sub-confluent cultures using minimal trypsinization. Cells were diluted to the appropriate density for each cell line (dependent on cell doubling time) in RPMI 1640, and seeded in 60 wells of a 96 well plate in a volume of 100 μl per well (i.e. outside wells of the plate were not used). Plates were incubated at 37° C. overnight. Following this incubation, log scale dilutions of reference and test substances were added in 100 μl per well, 6 replicates were used to test all test compounds, reference compounds and medium controls. Plates were incubated for a further 72 h prior to analysis. MTT (5 mg/ml) was added to each well and plates were re-incubated for 3-4 h. Unreacted MTT was removed from the wells and formazan crystals formed from the MTT were dissolved in DMSO and characteristic absorbance read at 570 nm.

MCF-7 (breast) = test: MTT growth inhibition assay, MCF-7 (breast) tumour cell line; assay type: cell-based, human; settings: MCF-7 cell line, 72 h; for IC50: concentration giving 50% of maximum inhibition, read-out: IC50 (row head: MCF-7 rIC50)
Description: as §1

[1] = system: splenic lymphocytes isolated from C57BL/6 mice; test: Mixed lymphocyte reaction (MLR), [3H] thymidine incorporation; assay type: cell-based; settings: IC50 quoted as a ratio of the rapamycin IC50; 72 h, 37° C.
Description: Originally developed to assess tissue compatibility prior to allografts, MLR offers an established model for immune reaction in vitro (SOULILLOU, J. P., et al. (1975); T. Meo. “Immunological Methods”, L. Lefkovits and B. Pernis, Eds., Academic Press, N.Y. pp. 227-239 (1979). MLR was performed by mixing splenic lymphocytes isolated from C57BL/6 mice (5×10^5 cells) with inhibited splenic lymphocytes from CBA mice (2.5×10^5 cells). The inhibited CBA lymphocytes induced a proliferative response in C57BU6 lymphocytes and this was determined by [^3H] thymidine incorporation into DNA as a measure of proliferation of splenic lymphocytes isolated from C57BU6 mice. The anti-proliferative effect was assayed for in the presence of log scale dilutions of reference compounds, test compounds and media controls over a 72 h period at 37° C. The concentration of each test compound and reference compound, which inhibited lymphocyte proliferation by 50% (IC50), compared to control proliferation, was calculated for each cell line and quoted as a ratio of the concentration of rapamycin required to inhibit lymphocyte proliferation by 50% (rIC50), see Table XIV.

[2] = system: Candida albicans DSM 1386; test: Anti-fungal assay, NCCLS M27-A microtitre broth dilution; assay type: cell-based; settings: MIC as a ratio of the rapamycin MIC; 37° C., 24 h
Description: (§2) The comparative anti-fungal activities of reference and test compounds were determined against pathogenic fungi Candida albicans DSM 5816, Candida albicans DSM 1386 and Candida glabrata DSM 11226. This was achieved using a microtitre plate adaption of the NCCLS Reference Method for Broth Dilution Antifungal Susceptibility Testing for Yeasts: Approved Standard (M27-A, vol. 17 No. 9. (1997)). Yeast strains were inoculated (10^4 cfu/ml) to RPMI 1640 media containing […] MOPS, pH 7. Growth was determined in the presence of log scale dilutions of reference compounds, test compounds and media controls after incubation with shaking at 37° C., 24 h. Minimum inhibitory concentration (MIC) and minimum fungicidal activity (MFC) were determined for test compounds and expressed as a ratio of the rapamycin minimum inhibitory concentration (rMIC respectively), see Table XV.

[3] = system: Candida albicans DSM 5816; test: as above; assay type: cell-based; settings: MIC as a ratio of the rapamycin MIC; 37° C., 24 h
Description: as §2

[4] = system: Candida glabrata DSM 11226; test: as above; assay type: cell-based; settings: MIC as a ratio of the rapamycin MIC; 37° C., 24 h
Description: as §2

[5] = compared to rapamycin; Wong et al., 1998; cited from earlier work
[6] = compared to rapamycin; Box et al., 1995; cited from earlier work
FKBP12 = FKBP12 (Homo sapiens, UniProt P62942); settings: compared to rapamycin; Box et al., 1995; cited from earlier work
Sequence of FKBP12 (P62942 whole entry): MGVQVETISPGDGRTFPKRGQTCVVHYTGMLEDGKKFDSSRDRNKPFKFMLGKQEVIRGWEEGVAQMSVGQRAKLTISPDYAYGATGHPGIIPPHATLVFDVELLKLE

murine splenic T cells = settings: compared to rapamycin; Box et al., 1995; cited from earlier work
murine splenic B cells = settings: compared to rapamycin; Box et al., 1995; cited from earlier work
[7] = system: mixed lymphocyte reaction; settings: Nishida et al., 1995; cited from earlier work
[8] = compared to rapamycin; Khaw et al., 1998; cited from earlier work

Molecule | Im (maximum percentage of inhibition observed) (HT29 (colon); 72 h) [%] | IC50 (HT29 (colon); 72 h) [nM] | Im (maximum percentage of inhibition observed) (MCF-7 (breast)) [%] | IC50 (MCF-7 (breast)) [nM] | MLR rIC50 [1] | C. albicans DSM 1386 rMIC [2] | C. albicans DSM 5816 rMIC [3] | C. glabrata DSM 11226 rMIC [4] | other results
CC1=CC(C)C(=O)CC(C(C)CC2CCC(O)C(O)C2)OC(=O)C2CCCCN2C(=O)CC2(O)OC(CCC2C)CC(O)C(C)=CC=CC=CC(C)CC(C)C(=O)CC1O (stereo not shown) [Compound 1, 9-deoxo-16-O-desmethyl-27-desmethoxy-39-O-desmethyl-rapamycin] | 38 | 50.1 | 38 | 3.2 | 9.4 | 5 | 1 | 5 | –
CO[C@@H]1C[C@H](C[C@@H](C)[C@@H]2CC(=O)[C@H](C)/C=C(\C)[C@@H](O)[C@@H](O)C(=O)[C@H](C)C[C@H](C)/C=C/C=C/C=C(\C)[C@@H](O)C[C@@H]3CC[C@@H](C)[C@](O)(CC(=O)N4CCCC[C@H]4C(=O)O2)O3)CC[C@H]1O [Compound 9, 9-deoxo-16-O-desmethyl-27-O-desmethyl-rapamycin] | 35 | 12.6 | 40 | 17.8 | 6.5 | 1 | 1 | 1 | –
COC1CC2CCC(C)C(O)(CC(=O)N3CCCCC3C(=O)OC(C(C)CC3CCC(O)C(OC)C3)CC(=O)C(C)C=C(C)C(O)CC(=O)C(C)CC(C)C=CC=CC=C1C)O2 (stereo not shown) [Compound 16, 9-deoxo-27-desmethoxy-rapamycin] | 25 | 15.8 | 32 | 2 | >14.7 | 5 | 1 | 5 | –
CO[C@H]1C[C@@H]2CC[C@@H](C)[C@@](O)(O2)C(=O)C(=O)N2CCCC[C@H]2C(=O)O[C@H]([C@H](C)C[C@@H]2CC[C@@H](O)[C@H](OC)C2)CC(=O)[C@H](C)/C=C(\C)[C@@H](O)[C@@H](OC)C(=O)[C@H](C)C[C@H](C)/C=C/C=C/C=C/1C [rapamycin, reference compound] | 40 | – | 56 | – | – | – | – | – | IC50 (HT29 (colon); Homo sapiens, HT-29, 72 h): 200 nM; IC50 (MCF-7 (breast); Homo sapiens, MCF7): 0.03 nM
COC1CC2CCC(C)C(O)(O2)C(=O)C(=O)N2CCCC2C(=O)OC(C(C)CC2CCC(O)C(OC)C2)CC(=O)C(C)/C=C(\C)C(O)C(OC)C(=O)C(C)CC(C)/C=C/C=C/C=C/1C (stereo not shown) [prolylrapamycin, reference compound] | – | – | – | – | – | – | – | – | antifungal activities [5]: lower than that of rapamycin
CO[C@H]1C[C@@H]2CC[C@@H](C)[C@](O)(CC(=O)N3CCCC[C@H]3C(=O)O[C@H]([C@H](C)C[C@@H]3CC[C@@H](O)[C@H](O)C3)CC(=O)[C@H](C)/C=C(\C)[C@@H](O)[C@@H](O)C(=O)[C@H](C)C[C@H](C)/C=C/C=C/C=C/1C)O2 [Compound 8, 9-deoxo-27-O-desmethyl-39-O-desmethyl-rapamycin] | 30 | 63 | 38 | 20 | 4.1 | 1 | 1 | 1 | –
CO[C@H]1C[C@@H]2CC[C@@H](C)[C@@](O)(O2)C(=O)C(=O)N2CCCC[C@H]2C(=O)O[C@H]([C@H](C)C[C@@H]2CC[C@@H](O)[C@H](OC)C2)CC(=O)[C@H](C)/C=C(\C)[C@@H](O)[C@@H](O)C(=O)[C@H](C)C[C@H](C)/C=C/C=C/C=C/1C [Compound 21, 27-O-desmethyl-rapamycin] | – | – | – | – | – | – | – | – | antifungal activity [6]: lower than that of rapamycin; inhibition of FKBP12 PPlase activity (FKBP12): seemed to be increased; inhibition of ConA-stimulated proliferation of murine splenic T cells (murine splenic T cells): decreased when compared to rapamycin; inhibition of LPS-stimulated proliferation of murine splenic B cells (murine splenic B cells): decreased when compared to rapamycin; antifungal activities [5]: lower than that of rapamycin
CO[C@H]1C[C@@H]2CC[C@@H](C)[C@](O)(CC(=O)N3CCCC[C@H]3C(=O)O[C@H]([C@H](C)C[C@@H]3CC[C@@H](O)[C@H](OC)C3)CC(=O)[C@H](C)/C=C(\C)[C@@H](O)[C@@H](OC)C(=O)[C@H](C)C[C@H](C)/C=C/C=C/C=C/1C)O2 [Compound 19, 9-deoxo-rapamycin] | – | – | – | – | – | – | – | – | mixed lymphocyte reaction (MLR) inhibitory activity [7]: more significant decrease in activity
4-hydroxyprolyl-26-desmethoxy-rapamycin | – | – | – | – | – | – | – | – | inhibitory activity in proliferation assays [8]: significantly less than that of rapamycin
27-desmethoxy-rapamycin [Compound 22] | – | – | – | – | – | – | – | – | antifungal activities [5]: lower than that of rapamycin
CO[C@@H]1C[C@H](C[C@@H](C)[C@@H]2CC(=O)[C@H](C)/C=C(\C)[C@@H](O)CC(=O)[C@H](C)C[C@H](C)/C=C/C=C/C=C(\C)[C@@H](O)C[C@@H]3CC[C@@H](C)[C@](O)(CC(=O)N4CCCC[C@H]4C(=O)O2)O3)CC[C@H]1O [Compound 6, 9-deoxo-16-O-desmethyl-27-desmethoxy-rapamycin] | 38 | 25 | 48 | 126 | 8.8 | 5 | 1 | 5 | –
CC1=CC(C)C(=O)CC(C(C)CC2CCC(O)C(O)C2)OC(=O)C2CCCCN2C(=O)C(=O)C2(O)OC(CCC2C)CC(O)C(C)=CC=CC=CC(C)CC(C)C(=O)CC1O (stereo not shown) [Compound 3, 16-O-desmethyl-27-desmethoxy-39-O-desmethyl-rapamycin] | 37 | 63.1 | 38 | 20 | 7.9 | 1 | 1 | 1 | –
